In patent US11865125B2, “APKC inhibitors and methods of treating a neurodegenerative disease or disorder” (UNIVERSITY OF SOUTH FLORIDA, priority 2016, dated 2024):
pIC50: −log10 of the molar value. “Also recorded” adds a separate entry of the source. Read-outs that look alike come from different tables or passages of the source.

Columns and labels:
[1] = system: Akt; experiment: Akt activity in LA1-5s neuroblastoma cells; assay type: cell-based, human; details: LA1-5s cells, 200 nM insulin
Description: (§1) Relative bar values in panel a are mean±SEM of 6 determinations. Asterisks: *, P<0.05; **, P<0.01; ***, P<0.001 (ANOVA). Values in panel b are means of 2-4 determinations.
(§2) Shown here are Mean±SEM (N=4) values relative to the mean initial basal or insulin-stimulated level of indicated immunoreactive protein/peptide. Asterisks: *, P<0.05; **, P<0.01; ***, P<0.001 (ANOVA).
(§3) Western Analyses. As described, Western analyses were conducted with rabbit antisera or mouse monoclonal antibodies (mMab), using: anti-aPKC (Santa Cruz Biotechnologies, Santa Cruz, CA); anti-phospho-threonine-560/555-PKC-ζ/λ/ι (Invitrogen, Carlsbad, CA); anti-p-serine-256-FoxO1 and anti-FoxO1 (Abnova, Walnut, CA); anti-Akt (mMab), anti-phospho-serine-473-Akt, anti-phospho-serine-9-GSK3P anti-GSK313, anti-phospho-serine-253-FoxO3a, anti-FoxO3a, anti-phospho-serine-256-FoxO1, anti-phospho-serine-193-FoxO4; anti-FoxO1, anti-phospho-serine-2448-mTOR, anti-mTOR, anti-β-amyloid (anti-5-10 kDa-Aβ1-40/42) and anti-amyloid precursor protein (anti-120 kDa-APP) (Cell Signaling Technologies, Danvers, MA); and anti-phospho-serine-202-tau, anti-phospho-threonine-231-tau (Gene Tex, Irvine, CA). Samples from experimental groups were compared on the same blots, and routinely checked with loading controls. Note that: insulin-sensitive 70 kDa aPKC is largely PKC-ζ in mouse brain and orthologous PKC-ι (98% aa homology) in monkey and other primate brains; brain PKC-ζ exists largely as a 50 kDa moiety that, lacking a regulatory domain, is constitutively-active and unresponsive to insulin.

[2] = system: β-secretase (BACE1); experiment: β-secretase activity (BACE1) in LA1-5s neuroblastoma cells; assay type: cell-based, human; details: LA1-5s cells
Description: as §1, §2
β-Secretase Activity (BACE1; beta-site APP-cleaving enzyme-1). β-Secretase was measured was measured using a kit from Thermo-Fisher.

[3] = system: phospho-thr-231-tau; experiment: phospho-thr-231-tau levels in LA1-5s neuroblastoma cells; assay type: cell-based, human; details: LA1-5s cells
Description: as §2, §3

[4] = system: Akt; experiment: brain Akt phosphorylation/activity in mice; assay type: in vivo, mouse
Source text: (§4) Mouse Studies. Brain samples were obtained from normal and insulin-resistant mice and monkeys used previously, and includes mice originally used in studies of insulin signaling and resistance in liver: (a) 4-6 month old C57Bl/6 mice used in studies of high-fat-feeding [USF Vivarium] [6]; 4-6 month-old male C57Bl/6 ob/ob and lean ob+ mice (Jackson Labs, Bar Harbor, Maine); and (c) 10-12 month-old C57Bl/6 Het-MλKO mice [USF Vivarium] [8]. […] Where indicated normal mice were given a single SC injection of saline or saline containing 1.5 mg/kg ICAPP to follow time-related alterations in brain signaling factors. Where indicated, mice were treated intraperitoneally (IP) with insulin (1 U/kg body weight) or vehicle 15-min before euthanization by administration of Xylazine/Ketamine, followed by whole body perfusion with phosphate-buffered saline and rapid removal of brain and other tissues.
(§5) Tissue Preparations. As described, mouse brains were hemisected sagittally, and one-half was frozen in liquid N2, stored at −80° C., and samples thereof were homogenized in buffer containing 0.25M sucrose, 20 mM Tris/HCl (pH, 7.5), 2 mmol/l EGTA, 2 mM EDTA, 1 mM phenlysulfonoylfluoride (PMSF), 20 μg/ml leupeptin, 10 μg/ml aprotinin, 2 mM Na4P2O7, 2 mM Na3VO4, 2 mM NaF, and 1 μM microcystin, and then supplemented with 1% TritonX-100, 0.6% Nonidet and 150 mM NaCl.
as §3
(§6) Where indicated, mice were randomly treated with insulin (1 unit/kg/bw i.p.) 15 min before being euthanized by administration of xylazine/ketamine, followed by whole-body perfusion with PBS and rapid removal of brain and other tissues.

[5] = system: Akt substrates FOXO1, FOXO3a, GSK3β, and mTOR; experiment: phosphorylation of Akt substrates in mouse brain; assay type: in vivo; details: Het-MλKO mice, s.c. once daily for 8 days (ICAPP 0.4 mg/kg, ATM 60 mg/kg)
Source text: as §4, §5
Western Analyses. […]

[6] = system: Aβ1-40/42; experiment: brain Aβ1-40/42 peptide levels in mice; assay type: in vivo, mouse
Source text: as §4, §5, §3, §6

[7] = serum insulin levels / hyperinsulinemia in insulin-resistant mice; assay type: in vivo, mouse; details: Het-MλKO mice
Source text: as §4, §6

[8] = passage of the blood brain barrier; assay type: in vivo, mouse; details: intact mice, inferred from inhibition of brain PKC-λ/ι
[9] = system: conventional PKCs, novel PKCs, AMP-dependent protein kinase and Akt; details: cited from earlier work
[10] = Het-MλKO mice, reported previously; cited from earlier work
[11] = target: T1, aPKC (Homo sapiens, UniProt P41743); set-up: endogenous in cells; details: previously seen, stated as similar; read-out: IC50, inhibition of aPKC activity in isolated human hepatocytes; cited from earlier work
T1 sequence (P41743 2-596): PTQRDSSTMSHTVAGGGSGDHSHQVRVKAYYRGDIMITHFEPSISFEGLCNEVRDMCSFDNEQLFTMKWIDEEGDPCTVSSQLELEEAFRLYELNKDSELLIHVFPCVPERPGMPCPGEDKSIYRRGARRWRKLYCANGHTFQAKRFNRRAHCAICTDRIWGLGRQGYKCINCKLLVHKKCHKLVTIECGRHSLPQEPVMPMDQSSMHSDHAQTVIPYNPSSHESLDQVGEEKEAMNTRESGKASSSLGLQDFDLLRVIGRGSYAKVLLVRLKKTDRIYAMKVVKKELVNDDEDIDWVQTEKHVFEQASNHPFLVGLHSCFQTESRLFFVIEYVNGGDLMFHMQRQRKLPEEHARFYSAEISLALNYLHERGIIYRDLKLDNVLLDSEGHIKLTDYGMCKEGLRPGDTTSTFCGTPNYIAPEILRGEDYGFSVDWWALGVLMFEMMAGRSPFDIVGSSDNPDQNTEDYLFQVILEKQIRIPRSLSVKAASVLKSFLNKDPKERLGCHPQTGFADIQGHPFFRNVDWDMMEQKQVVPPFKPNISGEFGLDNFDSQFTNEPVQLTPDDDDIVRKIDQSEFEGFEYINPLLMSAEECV

[12] = target: T1, aPKC; experiment: aPKC activity in LA1-5s neuroblastoma cells; assay type: cell-based; set-up: endogenous in cells; host or cells: LA1-5s human neuroblastoma cells
[13] = Het-MλKO mice, s.c. once daily for 8 days (ICAPP 0.4 mg/kg, ATM 60 mg/kg)
[14] = Het-MλKO mice, s.c. once daily for 8 days (ICAPP 0.4 mg/kg, ATM 60 mg/kg), insulin 1 U/kg i.p. 15 min
[15] = normal mice, single s.c. dose of ICAPP 1.5 mg/kg, insulin 1 U/kg i.p. 15 min before killing

Compound: NC(=O)c1ncn([C@@H]2C[C@H](COP(=O)(O)O)[C@@H](O)[C@H]2O)c1N [ICAPP]
- effect on stimulatory effects of insulin on Akt activity [1]: without altering
- effect on metformin-induced increase in β-secretase activity [2]: dose-dependently inhibited
- effect on insulin-stimulated β-secretase activity ([2]; 200 nM insulin): dose-dependent decreases
- effect on metformin-induced increase in phospho-thr-231-tau [3]: dose-dependently inhibited
- resting/basal brain Akt activity [4, 13]: diminished; also recorded: reductions of resting/basal activities of brain Akt and aPKC, comparable to those seen with ATM treatment
- acute insulin activation of brain Akt [4, 14]: restored ability of insulin to acutely activate Akt; also recorded: insulin was fully able to fully activate Akt
- insulin-stimulated increases in brain Akt activity [4, 15]: without altering; also recorded: without inhibiting insulin effects on Akt
- resting/basal phosphorylation of Akt substrates in brain [5]: diminished
- acute insulin-stimulated phosphorylation of Akt substrates in brain ([5]; insulin 1 U/kg i.p. 15 min): restored ability of insulin; also recorded: fully able
- resting/basal brain Aβ1-40/42 peptide levels [6, 13]: returned to normal
- acute insulin-induced increase in brain Aβ1-40/42 levels [6, 14]: comparable loss in the ability of insulin to acutely increase Aβ1-40/42 levels; also recorded: abrogated
- insulin-dependent brain Aβ1-40/42 peptide levels [6, 15]: time-related, well-correlated decreases; also recorded: blocked acute effects of insulin
- hyperinsulinemia [7]: hyperinsulinemia was corrected; also recorded: fully reversed
- passage of the blood brain barrier (BBB) [8]: can cross the BBB
- inhibition of conventional PKCs, novel PKCs, AMP-dependent protein kinase and Akt [9]: Neither ICAPP [8] nor ACPD [6,7] inhibit
- serum insulin levels / hyperinsulinemia [10]: fully/sufficiently improved; also recorded: reduced serum insulin levels in Het-MλKO mice to normal
- pIC50 [11]: 8.00 to 9.00
- effect on metformin-induced increase in aPKC activity ([12]; LA1-5s cells): dose-dependently inhibited
- pIC50 ([12]; LA1-5s human neuroblastoma cells, 200 nM insulin, read-out: IC50, inhibition of insulin-stimulated aPKC activity): 8.00 to 9.00
